The values that follow are results of earlier work, collected in patent US20260283953A1, “FORMULATIONS OF PHOSPHOLIPID CARRIER COMPLEXES” (priority 2024, published 2026).

Where two headings read alike, the source gives them in different places.

For series [1] the following is noted: in vivo.
For series [2] the following is noted: natural testosterone.
For series [3] the following is noted: for testosterone levels: oral 60 mg dose.

`COc1cc(/C=C/C(=O)CC(=O)/C=C/c2ccc(O)c(OC)c2)ccc1O` [curcumin]: the bioavailability result in series [1] was “low bioavailability”.

On to `O=C(/C=C/C=C/c1ccc2c(c1)OCO2)N1CCCCC1` [Piperine, (2E,4E)-5-(2H-1,3-Benzodioxol-5-yl)-1-(piperidin-1-yl)penta-2,4-dien-1-one], for which the solubility in water entry was “dissolves poorly in water”.

Take `C[C@]12CC[C@H]3[C@@H](CCC4=CC(=O)CC[C@@]43C)[C@@H]1CC[C@@H]2O` [testosterone, 17β-Hydroxyandrost-4-en-3-one]: the half-life entry in series [2] is “under 1 hour”. Besides, in series [3] (first pass through the intestines and liver), the “absorption and metabolism with oral delivery” value was “well-absorbed but extensively metabolized”. In addition, the “inactivation after oral delivery” value in series [3] (men, doses of less than 200 mg) is “rapidly and completely inactivated”. Further, the testosterone levels result in series [3] (men) is given as “no effect”; in series [3] (men with liver cirrhosis), “High levels”; in series [3] (prepubertal boys and women), “measurably increase”. Moreover, the circulating testosterone levels result in series [3] (oral, large doses such as 200 mg) was “significant increases”. Further, the oral bioavailability in series [3] (young women, single 25 mg dose) is listed as 3.6±2.5%.
